Publication PMC8185074, “Anchor extension: a structure-guided approach to design cyclic peptides targeting enzyme active sites” (Nature Communications, 2021)
Peptide text beside a SMILES is read from it.

Experiments:
Type in all cases: biochemical
HDAC2 [1] = molecular target: T1, HDAC2 (Homo sapiens, UniProt Q92769); test: HDAC2 inhibition, full IC50 measurement (Reaction Biology; fluorogenic p53 peptide RHKK(Ac)AMC); settings: for IC50: figure legends, Supp. Table 1, read-out: HDAC2 IC50
T1 construct: purchased Reaction Biology Corporation (assay run by the CRO)
T1 sequence (Q92769 whole entry): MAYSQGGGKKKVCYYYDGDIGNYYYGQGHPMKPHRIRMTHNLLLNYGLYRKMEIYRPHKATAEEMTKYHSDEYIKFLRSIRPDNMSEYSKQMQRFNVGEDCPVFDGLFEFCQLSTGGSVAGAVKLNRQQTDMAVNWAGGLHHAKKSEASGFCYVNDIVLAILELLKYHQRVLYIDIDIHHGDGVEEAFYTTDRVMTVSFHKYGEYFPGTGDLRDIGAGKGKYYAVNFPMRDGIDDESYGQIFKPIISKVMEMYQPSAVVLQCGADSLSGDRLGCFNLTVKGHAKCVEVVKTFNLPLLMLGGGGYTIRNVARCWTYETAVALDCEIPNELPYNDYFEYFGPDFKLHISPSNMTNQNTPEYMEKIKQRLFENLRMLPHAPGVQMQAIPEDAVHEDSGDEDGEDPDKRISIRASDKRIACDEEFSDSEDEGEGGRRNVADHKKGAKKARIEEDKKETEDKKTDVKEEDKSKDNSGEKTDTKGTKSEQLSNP
Procedure, shortened: (§1)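 Test peptides were dispensed acoustically with enzyme in 50 mM Tris-HCl pH 8.0, 137 mM NaCl, 2.7 mM KCl, 1 mM MgCl2, 1 mg/ml BSA and 1% DMSO. After adding 50 μM RHKK(Ac)AMC, reactions ran 1 h at 30 °C, then developer was added.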

HDAC8 = molecular target: T2, HDAC8 (Homo sapiens, UniProt Q9BY41); test: HDAC8 inhibition, full IC50 measurement (Reaction Biology; fluorogenic p53 peptide RHKK(Ac)AMC); settings: for HDAC8 activity raw data (signal): t1/t2 replicates
T2 construct: purchased Reaction Biology Corporation (assay run by the CRO)
T2 sequence (Q9BY41 1-377): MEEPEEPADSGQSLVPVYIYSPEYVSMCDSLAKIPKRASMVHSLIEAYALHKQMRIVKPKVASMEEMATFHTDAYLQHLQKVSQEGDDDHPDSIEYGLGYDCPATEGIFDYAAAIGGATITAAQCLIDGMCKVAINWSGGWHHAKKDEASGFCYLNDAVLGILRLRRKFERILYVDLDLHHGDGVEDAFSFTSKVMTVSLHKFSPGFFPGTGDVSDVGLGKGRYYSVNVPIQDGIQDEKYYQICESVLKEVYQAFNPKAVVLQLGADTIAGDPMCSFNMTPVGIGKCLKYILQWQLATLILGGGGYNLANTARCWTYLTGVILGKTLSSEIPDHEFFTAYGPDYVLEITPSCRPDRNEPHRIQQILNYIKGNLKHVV
Procedure, shortened: as §1

HDAC2 [2] = molecular target: T1, HDAC2; test: Initial HDAC2 IC50 estimate (BPS Biosciences HDAC fluorogenic assay kit); settings: Supplementary Dataset 2; read-out: HDAC2 activity (initial activity)
Procedure, shortened: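 Inhibition measured by kit-based fluorogenic HDAC activity assays, with each point in duplicate or triplicate. Values come from a full 1 µM–100 pM series (1:10 steps) or are range estimates from just 20 nM and 200 nM.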

## NCCCC[C@@H]1NC(=O)[C@@H]2CCCN2C(=O)[C@H](CC(N)=O)NC(=O)[C@H](CCCCCS)NC(=O)CNC(=O)[C@H](Cc2c[nH]c3ccccc23)NC(=O)[C@@H](CCCCN)NC(=O)[C@H](CCC(N)=O)NC1=O [des1.1.0, SHA-Asn-Pro-Lys-Gln-dLys-Trp-Gly] (HELM PEPTIDE1{G.[O=C([C@H](CCCCCS)N[*:1])[*:2]].N.P.K.Q.[dK].W}$PEPTIDE1,PEPTIDE1,1:R1-8:R2$$$V2.0)
HDAC2 [1]; Conc. 1.00E-05 M, t1
  HDAC2 activity raw data (signal): 26927
HDAC2 [1]; Conc. 1.00E-05 M, t2
  HDAC2 activity raw data (signal): 32005
HDAC2 [1]; Conc. 1.11E-06 M, t1
  HDAC2 activity raw data (signal): 219707
HDAC2 [1]; Conc. 1.11E-06 M, t2
  HDAC2 activity raw data (signal): 218492
HDAC2 [1]; Conc. 1.23E-07 M, t1
  HDAC2 activity raw data (signal): 761586
HDAC2 [1]; Conc. 1.23E-07 M, t2
  HDAC2 activity raw data (signal): 802228
HDAC2 [1]; Conc. 1.37E-08 M, t1
  HDAC2 activity raw data (signal): 1027147
HDAC2 [1]; Conc. 1.37E-08 M, t2
  HDAC2 activity raw data (signal): 1098979
HDAC2 [1]; Conc. 1.52E-09 M, t1
  HDAC2 activity raw data (signal): 1105616
HDAC2 [1]; Conc. 1.52E-09 M, t2
  HDAC2 activity raw data (signal): 1105020
HDAC2 [1]; Conc. 3.33E-06 M, t1
  HDAC2 activity raw data (signal): 102737
HDAC2 [1]; Conc. 3.33E-06 M, t2
  HDAC2 activity raw data (signal): 85727
HDAC2 [1]; Conc. 3.70E-07 M, t1
  HDAC2 activity raw data (signal): 469170
HDAC2 [1]; Conc. 3.70E-07 M, t2
  HDAC2 activity raw data (signal): 506124
HDAC2 [1]; Conc. 4.12E-08 M, t1
  HDAC2 activity raw data (signal): 943203
HDAC2 [1]; Conc. 4.12E-08 M, t2
  HDAC2 activity raw data (signal): 906297
HDAC2 [1]; Conc. 4.57E-09 M, t1
  HDAC2 activity raw data (signal): 1010930
HDAC2 [1]; Conc. 4.57E-09 M, t2
  HDAC2 activity raw data (signal): 1048769
HDAC2 [1]; Conc. 5.08E-10 M, t1
  HDAC2 activity raw data (signal): 1134293
HDAC2 [1]; Conc. 5.08E-10 M, t2
  HDAC2 activity raw data (signal): 1187103
HDAC2 [1]
  IC50: 289 nM
HDAC8; peptide conc. 1.00E-05 M, listed as des1.1.0_t1
  HDAC8 activity raw data (signal): 10236983
HDAC8; peptide conc. 1.00E-05 M, listed as des1.1.0_t2
  HDAC8 activity raw data (signal): 10257985
HDAC8; peptide conc. 1.11E-06 M, listed as des1.1.0_t1
  HDAC8 activity raw data (signal): 29747792
HDAC8; peptide conc. 1.11E-06 M, listed as des1.1.0_t2
  HDAC8 activity raw data (signal): 28102681
HDAC8; peptide conc. 1.23E-07 M, listed as des1.1.0_t1
  HDAC8 activity raw data (signal): 42994609
HDAC8; peptide conc. 1.23E-07 M, listed as des1.1.0_t2
  HDAC8 activity raw data (signal): 40726222
HDAC8; peptide conc. 1.37E-08 M, listed as des1.1.0_t1
  HDAC8 activity raw data (signal): 47328720
HDAC8; peptide conc. 1.52E-09 M, listed as des1.1.0_t1
  HDAC8 activity raw data (signal): 53395040
HDAC8; peptide conc. 1.52E-09 M, listed as des1.1.0_t2
  HDAC8 activity raw data (signal): 46072556
HDAC8; peptide conc. 3.33E-06 M, listed as des1.1.0_t1
  HDAC8 activity raw data (signal): 22600954
HDAC8; peptide conc. 3.33E-06 M, listed as des1.1.0_t2
  HDAC8 activity raw data (signal): 20891410
HDAC8; peptide conc. 3.70E-07 M, listed as des1.1.0_t1
  HDAC8 activity raw data (signal): 39809686
HDAC8; peptide conc. 3.70E-07 M, listed as des1.1.0_t2
  HDAC8 activity raw data (signal): 39972357
HDAC8; peptide conc. 4.12E-08 M, listed as des1.1.0_t1
  HDAC8 activity raw data (signal): 43706367
HDAC8; peptide conc. 4.12E-08 M, listed as des1.1.0_t2
  HDAC8 activity raw data (signal): 45310513
HDAC8; peptide conc. 4.57E-09 M, listed as des1.1.0_t1
  HDAC8 activity raw data (signal): 46840747
HDAC8; peptide conc. 4.57E-09 M, listed as des1.1.0_t2
  HDAC8 activity raw data (signal): 46072556
HDAC8; peptide conc. 5.08E-10 M, listed as des1.1.0_t1
  HDAC8 activity raw data (signal): 54262535
HDAC8; peptide conc. 5.08E-10 M, listed as des1.1.0_t2
  HDAC8 activity raw data (signal): 46072556
HDAC2 [2]
  IC50: 10 to 100 nM

## CC(C)[C@@H]1NC(=O)[C@H](CCCNC(=N)N)NC(=O)[C@@H](CC(=O)O)NC(=O)[C@H](CO)NC(=O)[C@@H](CO)NC(=O)[C@@H](CCC(=O)O)NC(=O)[C@H](Cc2ccc(O)cc2)NC(=O)[C@H](CCCCCS)NC1=O [des4.2.0, SHA-Tyr-dGlu-dSer-Ser-dAsp-Arg-Val] (HELM PEPTIDE1{R.V.[O=C([C@H](CCCCCS)N[*:1])[*:2]].Y.[dE].[dS].S.[dD]}$PEPTIDE1,PEPTIDE1,1:R1-8:R2$$$V2.0)
HDAC2 [1]; Conc. 1.00E-05 M, t1
  HDAC2 activity raw data (signal): 20394
HDAC2 [1]; Conc. 1.00E-05 M, t2
  HDAC2 activity raw data (signal): 38836
HDAC2 [1]; Conc. 1.11E-06 M, t1
  HDAC2 activity raw data (signal): 480221
HDAC2 [1]; Conc. 1.11E-06 M, t2
  HDAC2 activity raw data (signal): 475819
HDAC2 [1]; Conc. 1.23E-07 M, t1
  HDAC2 activity raw data (signal): 1083936
HDAC2 [1]; Conc. 1.23E-07 M, t2
  HDAC2 activity raw data (signal): 1073630
HDAC2 [1]; Conc. 1.37E-08 M, t1
  HDAC2 activity raw data (signal): 1586330
HDAC2 [1]; Conc. 1.37E-08 M, t2
  HDAC2 activity raw data (signal): 1580365
HDAC2 [1]; Conc. 1.52E-09 M, t1
  HDAC2 activity raw data (signal): 1730890
HDAC2 [1]; Conc. 1.52E-09 M, t2
  HDAC2 activity raw data (signal): 1745453
HDAC2 [1]; Conc. 3.33E-06 M, t1
  HDAC2 activity raw data (signal): 208395
HDAC2 [1]; Conc. 3.33E-06 M, t2
  HDAC2 activity raw data (signal): 205670
HDAC2 [1]; Conc. 3.70E-07 M, t1
  HDAC2 activity raw data (signal): 726508
HDAC2 [1]; Conc. 3.70E-07 M, t2
  HDAC2 activity raw data (signal): 767311
HDAC2 [1]; Conc. 4.12E-08 M, t1
  HDAC2 activity raw data (signal): 1358432
HDAC2 [1]; Conc. 4.12E-08 M, t2
  HDAC2 activity raw data (signal): 1262650
HDAC2 [1]; Conc. 4.57E-09 M, t1
  HDAC2 activity raw data (signal): 1679024
HDAC2 [1]; Conc. 4.57E-09 M, t2
  HDAC2 activity raw data (signal): 1646125
HDAC2 [1]; Conc. 5.08E-10 M, t1
  HDAC2 activity raw data (signal): 1775852
HDAC2 [1]; Conc. 5.08E-10 M, t2
  HDAC2 activity raw data (signal): 1816576
HDAC2 [1]
  IC50: 214 nM
HDAC8; Supp. Table 1
  IC50: 370 nM
HDAC8; peptide conc. 1.00E-05 M, listed as des4.2.0_t1
  HDAC8 activity raw data (signal): 92279
HDAC8; peptide conc. 1.00E-05 M, listed as des4.2.0_t2
  HDAC8 activity raw data (signal): 81671
HDAC8; peptide conc. 1.11E-06 M, listed as des4.2.0_t1
  HDAC8 activity raw data (signal): 396585
HDAC8; peptide conc. 1.11E-06 M, listed as des4.2.0_t2
  HDAC8 activity raw data (signal): 434279
HDAC8; peptide conc. 1.23E-07 M, listed as des4.2.0_t1
  HDAC8 activity raw data (signal): 727023
HDAC8; peptide conc. 1.23E-07 M, listed as des4.2.0_t2
  HDAC8 activity raw data (signal): 752193
HDAC8; peptide conc. 1.37E-08 M, listed as des4.2.0_t1
  HDAC8 activity raw data (signal): 1107635
HDAC8; peptide conc. 1.37E-08 M, listed as des4.2.0_t2
  HDAC8 activity raw data (signal): 1031405
HDAC8; peptide conc. 1.52E-09 M, listed as des4.2.0_t1
  HDAC8 activity raw data (signal): 1115979
HDAC8; peptide conc. 1.52E-09 M, listed as des4.2.0_t2
  HDAC8 activity raw data (signal): 1078250
HDAC8; peptide conc. 3.33E-06 M, listed as des4.2.0_t1
  HDAC8 activity raw data (signal): 190039
HDAC8; peptide conc. 3.33E-06 M, listed as des4.2.0_t2
  HDAC8 activity raw data (signal): 213758
HDAC8; peptide conc. 3.70E-07 M, listed as des4.2.0_t1
  HDAC8 activity raw data (signal): 540901
HDAC8; peptide conc. 3.70E-07 M, listed as des4.2.0_t2
  HDAC8 activity raw data (signal): 562035
HDAC8; peptide conc. 4.12E-08 M, listed as des4.2.0_t1
  HDAC8 activity raw data (signal): 828599
HDAC8; peptide conc. 4.12E-08 M, listed as des4.2.0_t2
  HDAC8 activity raw data (signal): 842494
HDAC8; peptide conc. 4.57E-09 M, listed as des4.2.0_t1
  HDAC8 activity raw data (signal): 599790
HDAC8; peptide conc. 4.57E-09 M, listed as des4.2.0_t2
  HDAC8 activity raw data (signal): 1026390
HDAC8; peptide conc. 5.08E-10 M, listed as des4.2.0_t1
  HDAC8 activity raw data (signal): 1085628
HDAC8; peptide conc. 5.08E-10 M, listed as des4.2.0_t2
  HDAC8 activity raw data (signal): 1128546
HDAC2 [2]
  IC50: 200 nM
